Measured values taken from patent publication US20230203029A1 (priority 2020, published 2023).

Columns and labels:
[1] = target: T1, human AXL cytoplasmic domain (Homo sapiens, UniProt P30530); assay: Assay 1b AXL HTRF KinEASE-TK assay; format: biochemical
T1 construct: human AXL cytoplasmic domain (Thermo Fisher A31515); purchased Thermo Fisher A31515
T1 sequence (P30530 473-894 limits assumed): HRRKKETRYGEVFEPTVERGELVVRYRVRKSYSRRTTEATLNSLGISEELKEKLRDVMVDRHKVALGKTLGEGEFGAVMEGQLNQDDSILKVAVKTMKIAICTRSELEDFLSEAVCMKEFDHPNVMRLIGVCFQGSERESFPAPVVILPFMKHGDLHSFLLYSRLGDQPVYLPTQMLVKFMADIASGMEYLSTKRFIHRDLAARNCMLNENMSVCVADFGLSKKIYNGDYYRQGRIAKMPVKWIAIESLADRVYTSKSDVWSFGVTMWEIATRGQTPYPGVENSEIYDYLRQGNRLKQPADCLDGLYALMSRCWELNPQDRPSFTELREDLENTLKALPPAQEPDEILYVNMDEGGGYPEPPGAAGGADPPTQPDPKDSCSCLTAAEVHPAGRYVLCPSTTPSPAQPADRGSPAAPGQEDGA
Procedure, shortened: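 Recombinant cytoplasmic domain (5 nM) in kinase buffer with 5 mM MgCl2, 1 mM MnCl2, 1 mM DTT, 50 nM SEB plus test compounds; reaction 30 min at room temperature. EDTA-containing detection with TK antibody-cryptate/streptavidin-XL665 for 60 min; HTRF 665/620 ratio read. IC50 from 4-parameter logistic fit with variable slope.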

[2] = target: T2, Ba/F3 Pro B-cell line expressing TEL-human Tyro3 fusion domain (Homo sapiens, UniProt Q06418); format: cell-based; settings: cell survival, 48 h, CellTiter-Glo
T2 sequence (Q06418 518-790 limits assumed): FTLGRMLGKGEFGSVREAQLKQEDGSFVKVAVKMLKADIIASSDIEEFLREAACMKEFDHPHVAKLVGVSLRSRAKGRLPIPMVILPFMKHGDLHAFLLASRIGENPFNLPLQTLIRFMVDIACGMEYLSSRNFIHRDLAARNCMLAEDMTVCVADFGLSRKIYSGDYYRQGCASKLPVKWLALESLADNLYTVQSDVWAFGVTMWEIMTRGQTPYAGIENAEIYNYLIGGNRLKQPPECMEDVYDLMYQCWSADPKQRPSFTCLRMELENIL

Row | IC50 [1] [µM] | Structure (SMILES) | IC50 [2] [µM]
1 | 0.006 | CC(C)n1cc(C(=O)Nc2ccc(Oc3ccnc4cnc(N5CCNCC5)cc34)cc2)c(=O)c(-c2ccc(F)cc2)c1 [Example 13, 5-(4-Fluorophenyl)-1-isopropyl-4-oxo-N-[4-[(6-piperazin-1-yl-1,7-naphthyridin-4-yl)oxy]phenyl]pyridine-3-carboxamide] | 0.212
2 | 0.007 | O=C(Nc1ccc(Oc2ccnc3cnc(N4CCN(C5COC5)CC4)cc23)cn1)c1ccnn(-c2ccc(F)cc2)c1=O [Example 20, 2-(4-fluorophenyl)-N-[5-[[6-[4-(oxetan-3-yl)piperazin-1-yl]-1,7-naphthyridin-4-yl]oxy]-2-pyridyl]-3-oxo-pyridazine-4-carboxamide] | 0.272
3 | 0.01 | C[C@H](CO)n1cc(C(=O)Nc2ccc(Oc3ccnc4cnc(C(=O)NC5CCN(C)CC5)cc34)cc2)c(=O)n(-c2ccc(F)cc2)c1=O [Example 14, 4-[4-[[3-(4-Fluorophenyl)-2,4-dioxo-1-[(1R)-2-hydroxy-1-methyl-ethyl]pyrimidine-5-carbonyl]amino]phenoxy]-N-(1-methyl-4-piperidyl)-1,7-naphthyridine-6-carboxamide] | 0.592
4 | 0.007 | CN1CCC(NC(=O)c2cc3c(Oc4ccc(NC(=O)c5cn(C)cc(-c6ccc(F)cc6)c5=O)cc4)ccnc3cn2)CC1 [Example 37, 4-[4-[[5-(4-fluorophenyl)-1-methyl-4-oxo-pyridine-3-carbonyl]amino]phenoxy]-N-(1-methyl-4-piperidyl)-1,7-naphthyridine-6-carboxamide] | 0.251
5 | 0.016 | O=C(Nc1ccc(Oc2ccnc3cnc(N4CCNCC4)cc23)cc1)c1cccn(-c2ccc(F)cc2)c1=O [Example 12.2, 1-(4-fluorophenyl)-2-oxo-N-[4-[(6-piperazin-1-yl-1,7-naphthyridin-4-yl)oxy]phenyl]pyridine-3-carboxamide] | 0.238
6 | 0.038 | CN1CCC(NC(=O)c2cc3c(Oc4ccc(NC(=O)c5cccn(-c6ccccc6)c5=O)cc4F)ccnc3cn2)CC1 [Example 33, 4-[2-fluoro-4-[(2-oxo-1-phenyl-pyridine-3-carbonyl)amino]phenoxy]-N-(1-methyl-4-piperidyl)-1,7-naphthyridine-6-carboxamide] | 0.155
7 | 0.006 | CC(C)n1cc(C(=O)Nc2ccc(Oc3ccnc4cnc(N5CCNCC5)cc34)cc2)c(=O)n(-c2ccc(F)cn2)c1=O [Example 12.4, 3-(5-fluoro-2-pyridyl)-1-isopropyl-2,4-dioxo-N-[4-[(6-piperazin-1-yl-1,7-naphthyridin-4-yl)oxy]phenyl]pyrimidine-5-carboxamide] | 0.313
8 | 0.005 | O=C(Nc1ccc(Oc2ccnc3cnc(N4CCNCC4)cc23)cc1)c1cn(C2CC2)c(=O)n(-c2ccc(F)cc2)c1=O [Example 36, 1-cyclopropyl-3-(4-fluorophenyl)-2,4-dioxo-N-[4-[(6-piperazin-1-yl-1,7-naphthyridin-4-yl)oxy]phenyl]pyrimidine-5-carboxamide] | 0.873
9 | 0.01 | CN1CCC(NC(=O)c2cc3c(Oc4ccc(NC(=O)c5cn(C6CC6)c(=O)n(-c6ccc(F)cc6)c5=O)cc4)ccnc3cn2)CC1 [Example 15, 4-[4-[[1-Cyclopropyl-3-(4-fluorophenyl)-2,4-dioxo-pyrimidine-5-carbonyl]amino]phenoxy]-N-(1-methyl-4-piperidyl)-1,7-naphthyridine-6-carboxamide] | 0.673
10 | 0.2 | CN1CCC(NC(=O)c2cc3c(Nc4ccc(NC(=O)c5cccn(-c6ccccc6)c5=O)cc4)ccnc3cn2)CC1 [Example 3, N-(1-methyl-4-piperidyl)-4-[4-[(2-oxo-1-phenyl-pyridine-3-carbonyl)amino]anilino]-1,7-naphthyridine-6-carboxamide] | 0.956
11 | 0.019 | CC(C)n1cc(C(=O)Nc2ccc(Oc3ccnc4cnc(N5CCNCC5)cc34)cc2)c(=O)n(-c2ccccn2)c1=O [Example 12.3, 1-isopropyl-2,4-dioxo-N-[4-[(6-piperazin-1-yl-1,7-naphthyridin-4-yl)oxy]phenyl]-3-(2-pyridyl)pyrimidine-5-carboxamide] | 1.32
12 | 0.01 | Cn1cc(C(=O)Nc2ccc(Oc3ccnc4cnc(N5CCNCC5)cc34)cc2)c(=O)c(-c2ccc(F)cc2)c1 [Example 13.1, 5-(4-fluorophenyl)-1-methyl-4-oxo-N-[4-[(6-piperazin-1-yl-1,7-naphthyridin-4-yl)oxy]phenyl]pyridine-3-carboxamide] | 0.179
13 | 0.009 | CC(C)n1cc(C(=O)Nc2ccc(Oc3ccnc4cnc(C(=O)NC5CCN(C)CC5)cc34)cn2)c(=O)n(-c2ccc(F)cc2)c1=O [Example 27.5, 4-[[6-[[3-(4-fluorophenyl)-1-isopropyl-2,4-dioxo-pyrimidine-5-carbonyl]amino]-3-pyridyl]oxy]-N-(1-methyl-4-piperidyl)-1,7-naphthyridine-6-carboxamide] | 0.107
14 | 0.005 | CC(C)n1cc(C(=O)Nc2ccc(Oc3ccnc4cnc(C(=O)NC5CCN(C)CC5)cc34)cc2)c(=O)c(-c2ccc(F)cc2)c1 [Example 37.1, 4-[4-[[5-(4-fluorophenyl)-1-isopropyl-4-oxo-pyridine-3-carbonyl]amino]phenoxy]-N-(1-methyl-4-piperidyl)-1,7-naphthyridine-6-carboxamide] | 0.043

Row | Structure (SMILES) | IC50 [1] [µM] | IC50 [2] [µM]
15 | Cc1cc(NC(=O)c2cccn(-c3ccccc3)c2=O)ccc1Oc1ccnc2cnc(N3CCNCC3)cc12 [Example 30, N-[3-methyl-4-[(6-piperazin-1-yl-1,7-naphthyridin-4-yl)oxy]phenyl]-2-oxo-1-phenyl-pyridine-3-carboxamide] | 0.87 | 1.33
